Earlier results, collected in patent US9468638B2, “Itraconazole formulations” (Texas Southern University, priority 2010, dated 2016).
≈ marks a conversion by molar mass, not a printed value. Like-named read-outs stand apart in the source and are kept apart here.

What was measured:
[1] = human, in vivo, iv
[2] = rat, in vivo
[3] = in vivo, iv
[4] = pH=8.1
[5] = not given; remark: listed apart in the source

| reduced clearance of hydroxylpropyl-β-cyclodextrin [1] [fold] | n-octanol/water partition coefficient log Po/w [4] | water solubility (neutral pH) | water solubility (pH=1) | solubility in PEG 400 ([5]; PEG 400) [µg/mL] | solubility in Tween 20 ([5]; Tween 20) [µg/mL] | Molecule | carcinogenicity finding [2] | toxicity that led to discontinuation of Sporanox I.V. Injection [3] |
| --- | --- | --- | --- | --- | --- | --- | --- | --- |
| 6 |  |  |  |  |  | hydroxylpropyl-β-cyclodextrin | produced pancreatic adenocarcinomas | renal toxicity |
|  | 5.66 | about 1 ng/mL | approximately 4 mcg/mL | 2140 (≈ 3030 µM) | 1190 (≈ 1690 µM) | CCC(C)n1ncn(-c2ccc(N3CCN(c4ccc(OCC5COC(Cn6cncn6)(c6ccc(Cl)cc6Cl)O5)cc4)CC3)cc2)c1=O (centres unmarked) [Itraconazole] |  |  |
